Assay results taken from PubChem BioAssay AID1996.
Converted amounts (≈) assume the structure as drawn.

Conditions: buffer; pH 7.4; 200.0 µM

| Compound | solubility kinetic [µg/mL] |
| --- | --- |
| COc1ccc(NC(=O)c2cc(-c3ccco3)on2)cc1 | 0.8 (≈ 2.81 µM) |
| Cc1ccc(/C=C/C(=O)O)cc1S(=O)(=O)Nc1ccc(C(=O)O)cc1 | 42.4 (≈ 117 µM) |
| NC(=O)C1CCCN(C(=O)CNC(=O)C23CC4CC(CC(C4)C2)C3)C1 (centres undefined) | 38.3 (≈ 110 µM) |
| COc1cc2ncnc(NCc3ccco3)c2cc1OC | 38.9 (≈ 136 µM) |
| CCOc1ccc(S(=O)(=O)/N=C(/c2ccccc2)N(C)C)cc1 | > 49.9 |
| NC(=O)c1sc2nc(-c3cccs3)ccc2c1N | 6.1 (≈ 22.2 µM) |
| O=C(c1cccc(Cl)c1)N1CCN(Cc2ccccc2)CC1 | 47.1 (≈ 150 µM) |
| COC(=O)C1=C(Nc2ccccc2NC(=O)c2ccccc2C(=O)O)CSC1 | > 59.8 |
| O=C(CNC(=O)c1ccco1)Nc1cccc(Cl)c1 | 18.9 (≈ 67.8 µM) |
| COc1ccc(C(=O)Nc2ccc(NC(=O)Cc3ccccc3)cn2)cc1 | 0.4 (≈ 1.11 µM) |
| Cc1ccc(CNC(=S)NCc2ccncc2)cc1 | 39.7 (≈ 146 µM) |
| Nc1ncc(S(=O)(=O)c2ccc(Cl)cc2)c(N)n1 | 31.4 (≈ 110 µM) |
| COc1ccc(C(=O)CCC(=O)NC2=NCCS2)cc1 | 14.6 (≈ 49.9 µM) |
| CCC(=O)c1ccc(N2CCN(C(=O)c3ccc(F)cc3)CC2)c(F)c1 | > 53.8 |
| CC1=NN(c2nc(-c3ccc(C#N)cc3)cs2)C(=O)C1 | > 42.3 |
| CCc1c(O)nc(SCC(=O)c2ccccc2)n(-c2ccccc2)c1=O | 44.6 (≈ 122 µM) |
| O=CNCCCc1nc2ccccc2n1CCc1ccccc1 | > 46.1 |
| Cc1noc(C)c1S(=O)(=O)Nc1ccccc1N1CCOCC1 | > 50.6 |
| CS(=O)(=O)N(CC(=O)N1CCOCC1)c1ccc(Cl)cc1 | > 49.9 |
| O=C(OCC(=O)N1CCOCC1)c1cc(F)c(F)cc1Cl | > 48 |
| CC(C)OC(=O)CSc1nc2c(cc1C#N)CCCCC2 | < 0.3 |
| O=C(/C=C/c1cccs1)N1CCN(c2ccc(F)cc2)CC1 | 3.1 (≈ 9.8 µM) |
| COc1ccc(CN2CCNCC2)c(OC)c1OC.Cl | 40.3 |
| Cc1cc(NS(=O)(=O)c2ccc(NC(=O)Cc3ccc([N+](=O)[O-])cc3)cc2)nc(C)n1 | > 66.2 |

| Compound | solubility kinetic [µg/mL] |
| --- | --- |
| O=C(Nc1ccc2[nH]c(=O)[nH]c2c1)c1cccc([N+](=O)[O-])c1 | 1.2 (≈ 4.02 µM) |
| COc1ccc(Nc2nnc(C)c(=O)[nH]2)c(OC)c1 | > 39.3 |
| COc1cccc(NC(=O)c2cccc(C(=O)Nc3cccc(OC)c3)c2)c1 | < 0.4 |
| CCCn1c(C(O)c2ccc(C)cc2)nc2ccccc21 (centres undefined) | 15.9 (≈ 56.7 µM) |
| Cc1ccc(NC(=O)Nc2ccc3c(c2)CCC3)c(C)c1 | < 0.3 |
| Cc1ccccc1NC(=O)Cc1c[nH]c2ccccc12 | 39.5 (≈ 149 µM) |
| C=CCNC(=O)[C@H]1N2C(=O)c3ccccc3C2SC1(C)C (some centres undefined) | > 45.4 |
| CCCN1C(=O)c2ccc(C(=O)Nc3cc(C)ccc3O)cc2C1=O | 0.9 (≈ 2.66 µM) |
| O=C(CCCc1nc(-c2ccc(Cl)cc2)no1)NC1CCCCC1 | 2.1 (≈ 6.04 µM) |
| Cn1c(=O)c2c(nc(NN=C3CCCC3)n2C)n(C)c1=O | > 43.5 |
| Fc1ccc(-c2nc(-c3cccs3)no2)cc1 | < 0.3 |
| COc1ccc(OCCCN2CCc3ccccc3C2)cc1.Cl | 36.5 |
| O=C(NC(=S)Nc1ccc2[nH]c(=O)[nH]c2c1)c1ccccc1F | 1.1 (≈ 3.33 µM) |
| FC(F)(F)c1ccccc1NC(=S)N1CCCC1 | 33 (≈ 120 µM) |
| COc1cc(CN2CCc3ccccc3C2)cc([N+](=O)[O-])c1O | 42.1 (≈ 134 µM) |
| COc1ccc(C(=O)NC2=NCCS2)c(OC)c1 | > 39.9 |
| CCc1ccc(/C=C2\SC(N3CCCC3)=NC2=O)cc1 | 12.8 (≈ 44.7 µM) |
| COc1cc([N+](=O)[O-])cc2sc(NC(=O)C3CC3)nc12 | 0.6 (≈ 2.05 µM) |
| C=CCN1C(=O)c2ccccc2C1(O)Cc1ccccc1 (centres undefined) | 36.6 (≈ 131 µM) |
| Cc1ccc(NC(=O)CN2CCOCC2)cc1C | 35.1 (≈ 141 µM) |
| Cc1cccc(C)c1NC(=O)CNC(=O)COC(=O)c1ccc(Cl)s1 | 23.9 (≈ 62.8 µM) |
| CCc1c(O)nc(SC2CC(=O)N(c3ccc(F)c(Cl)c3)C2=O)[nH]c1=O (centres undefined) | 55.7 (≈ 140 µM) |
| COc1ccc2c(c1)c(C(C)=O)c(C)n2-c1ccc(C(C)=O)cc1 | < 0.7 |
| Cc1ccc(O)c(CNc2cccc(C)n2)c1 | 22.5 (≈ 98.6 µM) |

| Compound | solubility kinetic [µg/mL] |
| --- | --- |
| C/C(=N\OCC(=O)Nn1c(C)nc2ccccc2c1=O)c1cccs1 | > 53.5 |
| CCOc1ccc(N2C(=O)NC(=O)/C(=C\c3ccccc3[N+](=O)[O-])C2=O)cc1 | > 57.2 |
| CC(=O)Nc1ccc(C(=O)COC(=O)c2cccs2)c(F)c1 | 9.6 (≈ 29.9 µM) |
| Cn1cnc([N+](=O)[O-])c1Cl | > 24.2 |
| Cn1ccc(=S)c2ccccc21 | 25.2 (≈ 144 µM) |
| COc1ccc(CNc2ccc([N+](=O)[O-])cc2C)cc1 | 2.1 (≈ 7.71 µM) |
| CC12CN3CC(C)(CN(C1)C3c1ccccc1F)C2 (centres undefined) | 34.3 (≈ 132 µM) |
| CCN1CCN(C(=S)NC(=O)/C=C/c2cccs2)CC1 | 44.8 (≈ 145 µM) |
| O=C(NCCCCc1ccccc1)c1cc([N+](=O)[O-])cc([N+](=O)[O-])c1 | 9.9 (≈ 28.8 µM) |
| Cc1ccc(NC(=O)/C(Cl)=C\c2ccccc2)cc1 | 1.4 (≈ 5.15 µM) |
| Cn1ccs/c1=N\C(=O)Nc1cccc(C(F)(F)F)c1 | > 45.2 |
| CCOC(=O)c1c(C)n(C)c2cc(Br)c(OC)cc12 | < 0.7 |
| CC1CC(C)(C)NC(=S)N1CCC(=O)N1CCc2ccccc21 (centres undefined) | 14.6 (≈ 44 µM) |
| CSCc1ccc(C(=O)NC(C)c2ccc(-n3ccnc3)cc2)cc1 (centres undefined) | 42.1 (≈ 120 µM) |
| CN(Cc1cccc(Cl)c1Cl)C(=O)CCNC(=O)c1ccco1 | > 53.3 |
| O=c1[nH]c(/C=C/c2cccc([N+](=O)[O-])c2)c([N+](=O)[O-])c(=O)[nH]1 | 34.8 (≈ 114 µM) |
| O=C(NCCc1ccccc1)c1ccc(NC(=O)c2cccnc2)cc1 | 4.3 (≈ 12.4 µM) |
| O=C(CNC(=O)c1ccccc1)OCN1C(=O)c2ccccc2C1=O | > 50.7 |
| O=C(Cc1c(F)cccc1Cl)OCC(=O)N1CCN(c2ccccc2)CC1 | 39.6 (≈ 101 µM) |
| NC(=O)COC(=O)CC(c1ccccc1)c1ccccc1 | > 42.5 |
| CC(C)Cn1c(=S)[nH]c2ccccc2c1=O | 1.6 (≈ 6.83 µM) |
| NC(=O)c1cc(S(=O)(=O)Nc2ccccc2)cs1 | > 42.3 |
| CC(=O)c1c(Cl)nc2cccc3c2c1-c1ccccc1C3=O | < 0.7 |
| Cc1ccc2oc(C(=O)N3CCN(CCO)CC3)c(C)c2c1 | > 45.4 |

| Compound | solubility kinetic [µg/mL] |
| --- | --- |
| OC1CCC(NC(=S)Nc2ccc(SC(F)F)cc2)CC1 (centres undefined) | 43.8 (≈ 132 µM) |
| O=C(NCCc1ccccc1)C1CC(=O)N(C2CCCC2)C1 (centres undefined) | > 45.1 |
| Cc1ccc(C(=O)C(C)OC(=O)c2nc(Cl)ccc2Cl)cc1 (centres undefined) | > 50.7 |
| CC(=O)N(C)c1ccc(NC(=O)C(c2ccccc2)c2ccccc2)cc1 | 40.2 (≈ 112 µM) |
| O=C(Nc1ccc(F)c(F)c1)c1ccco1 | > 33.5 |
| CCOC(=O)C1CCN(S(=O)(=O)c2c[nH]c(=O)[nH]c2=O)CC1 | > 49.7 |
| COc1ccc(C2OCC3(CO2)SC(=O)NC3=O)cc1OC (centres undefined) | 44.8 (≈ 138 µM) |
| CC1=C([N+](=O)[O-])C(c2ccccc2C(F)(F)F)NC(=O)N1C (centres undefined) | > 47.3 |
| O=C(O)c1c(NC(=O)N(CCO)Cc2ccccc2)sc2c1CCCC2 | 18.3 (≈ 48.9 µM) |
| CCOc1ccccc1-n1cnc(C#N)c1N | > 34.2 |
| Cc1ccc(-c2nc3ncccc3o2)cc1NC(=O)C(C)(C)C | 44.4 (≈ 144 µM) |
| CC(=O)Nc1cccc(Oc2nc(-c3ccccn3)nc3ccccc23)c1 | 0.8 (≈ 2.24 µM) |
| O=C1c2ccccc2C(=O)N1CCCn1ccnc1 | > 38.3 |
| OCCN1CCN(c2nc(-c3ccccc3O)nc3ccccc23)CC1 | 37.8 (≈ 108 µM) |
| O=C1N=C(N2CCCCC2)S/C1=C\c1ccncc1 | > 41 |
| O=C(Nc1ccccc1F)c1c[nH]c(=O)[nH]c1=O | 5.5 (≈ 22.1 µM) |
| CCC(C)n1c(O)c(C=NCc2cccnc2)c(=O)[nH]c1=S (centres undefined) | 44.8 (≈ 141 µM) |
| COc1ccc2cc(C(=O)N3CCN(c4cccc(C)c4C)CC3)[nH]c2c1 | 1.2 (≈ 3.3 µM) |
| O=C(CCc1c[nH]c2ccccc12)NCCOc1ccccc1 | 43.7 (≈ 142 µM) |
| Cc1c(O)nc2sc3ccccc3n2c1=O | 31.3 (≈ 135 µM) |
| N#CCc1nc2ccccc2c(=O)[nH]1 | > 27.8 |
| CCc1ccc(S(=O)(=O)n2c(C)nc3ccccc32)cc1 | 40.3 (≈ 134 µM) |
| Cc1ccc(C)c(C(=O)COC(=O)CN2C(=O)C3C4CCC(C4)C3C2=O)c1 (centres undefined) | > 55.4 |
| Nc1nc2c(ccc3ccccc32)s1 | 27.4 (≈ 137 µM) |

| Compound | solubility kinetic [µg/mL] |
| --- | --- |
| O=C(CN1CCOCC1)Nc1ccc(Br)cc1 | > 44.9 |
| CC1CN(C(=S)Nc2ccc(Cl)cc2)CC(C)O1 (centres undefined) | > 42.7 |
| O=C(CN1C(=O)NC2(CCCCC2)C1=O)NCc1ccc2c(c1)OCO2 | 42.8 (≈ 119 µM) |
| O=C(Nc1ccc2c(c1)OCO2)C1CC(=O)N(c2ccccc2)C1 (centres undefined) | 3.3 (≈ 10.2 µM) |
| CC(C)(C)NC(=O)c1ccccc1-c1nc2ccccc2s1 | 35.6 (≈ 115 µM) |
| CC1CCCN(S(=O)(=O)c2cc3c4c(c2)CCN4C(=O)CC3)C1 (centres undefined) | > 50.2 |
| COc1ccc(NC(=O)C2CCCN(S(C)(=O)=O)C2)cc1Cl (centres undefined) | 8.4 (≈ 24.2 µM) |
| CCc1nc(-c2ccccc2)c2ccccn12.O=C(O)C(=O)O | 38.1 |
| Nc1ccccc1Sc1ccc(C(F)(F)F)cc1[N+](=O)[O-] | 5.6 (≈ 17.8 µM) |
| Cc1cccc(Nc2nc(C)cc(C)n2)c1.Cl | 20.1 |
| c1csc(-c2nnc(COc3ncnc4sccc34)o2)c1 | > 47.5 |
| CCn1c(N2CCN(C(=O)c3ccco3)CC2)nc2ccccc21 | 35.8 (≈ 110 µM) |
| CC(CCc1ccccc1)NC(C)C(O)c1ccc(O)cc1.Cl (centres undefined) | > 50.4 |
| CC(C)C(NC(=O)C(C)N1C(=O)c2ccccc2C1=O)c1ccccc1 (centres undefined) | > 52.6 |
| S=C(Nc1cccnc1)N1CCCCC1 | > 33.2 |
| C=CCNC(=O)c1ccc(CSc2nc3ccccc3s2)cc1 | 8.2 (≈ 24.1 µM) |
| CC(=O)c1ccc(S(=O)(=O)NC2CCCCCCC2)cc1 | 45.1 (≈ 146 µM) |
| COc1ccc(Cl)cc1NC(=S)NCCO | > 39.1 |
| CCOC(=O)C[N+]1(C)CCN(C(C)=O)CC1.[Br-] | > 46.4 |
| CCCn1c(=O)c2c(nc3n2CCN3Cc2ccco2)n(C)c1=O | > 49.4 |
| CC(=O)Nc1cccc(CCc2nc3ccccc3[nH]2)c1 | > 41.9 |
| CN(C)c1nc(N(C)C)nc(N2CC(CCl)OC2=N)n1 (centres undefined) | > 45 |
| O=C(c1ccc([N+](=O)[O-])cc1)N(c1ccccn1)c1ccccn1 | > 48 |
